Experiments:
MMP-9 = MMP-9 (Homo sapiens, UniProt P14780); experiment: K(obs) of individual phage substrates (set of 1369); assay type: biochemical; conditions: MMP9
MMP-2 [1] = target: T1, MMP-2 (Homo sapiens, UniProt P08253); experiment: as above; assay type: biochemical; conditions: MMP2
T1 sequence (P08253 110-660): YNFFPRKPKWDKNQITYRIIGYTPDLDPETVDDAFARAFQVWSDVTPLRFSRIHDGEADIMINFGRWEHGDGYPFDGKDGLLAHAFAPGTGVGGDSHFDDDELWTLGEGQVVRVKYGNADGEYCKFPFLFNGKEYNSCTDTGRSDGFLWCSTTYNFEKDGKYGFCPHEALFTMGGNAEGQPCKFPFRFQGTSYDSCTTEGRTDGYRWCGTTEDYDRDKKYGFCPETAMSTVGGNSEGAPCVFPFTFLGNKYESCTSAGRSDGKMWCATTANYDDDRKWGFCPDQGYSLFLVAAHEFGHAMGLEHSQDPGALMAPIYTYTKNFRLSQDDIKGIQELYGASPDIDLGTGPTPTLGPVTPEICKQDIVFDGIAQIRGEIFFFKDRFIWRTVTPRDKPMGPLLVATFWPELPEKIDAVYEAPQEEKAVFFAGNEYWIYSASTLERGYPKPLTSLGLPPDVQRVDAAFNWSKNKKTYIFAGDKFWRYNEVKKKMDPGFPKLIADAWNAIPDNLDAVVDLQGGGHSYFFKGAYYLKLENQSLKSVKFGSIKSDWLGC

MMP-2 [2] = experiment: Substrate phage display with NGS: relative probability (RP) of P3-P1' tetramer clusters; assay type: biochemical, human; conditions: MMP2;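 also: ratio of tetramer probability after protease selection to that in naive phage library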
[3] = individual phage substrates, set of 1369 peptides, hyphen in sequence marks cleavage position
[4] = individual phage substrates, set of 1369 peptides, cleavage position marked by hyphen in sequence
[5] = RP of the P3-P1' tetramer contained in the substrate (substrate phage display with NGS)
[6] = individual phage substrate of the set of 1369 peptides, dash in the sequence marks the cleavage position
[7] = individual phage substrate of the set of 1369 peptides, cleavage position marked by '-'
[8] = RP of the P3-P1' tetramer contained in the substrate

Sequence of MMP-9 (P14780 94-707): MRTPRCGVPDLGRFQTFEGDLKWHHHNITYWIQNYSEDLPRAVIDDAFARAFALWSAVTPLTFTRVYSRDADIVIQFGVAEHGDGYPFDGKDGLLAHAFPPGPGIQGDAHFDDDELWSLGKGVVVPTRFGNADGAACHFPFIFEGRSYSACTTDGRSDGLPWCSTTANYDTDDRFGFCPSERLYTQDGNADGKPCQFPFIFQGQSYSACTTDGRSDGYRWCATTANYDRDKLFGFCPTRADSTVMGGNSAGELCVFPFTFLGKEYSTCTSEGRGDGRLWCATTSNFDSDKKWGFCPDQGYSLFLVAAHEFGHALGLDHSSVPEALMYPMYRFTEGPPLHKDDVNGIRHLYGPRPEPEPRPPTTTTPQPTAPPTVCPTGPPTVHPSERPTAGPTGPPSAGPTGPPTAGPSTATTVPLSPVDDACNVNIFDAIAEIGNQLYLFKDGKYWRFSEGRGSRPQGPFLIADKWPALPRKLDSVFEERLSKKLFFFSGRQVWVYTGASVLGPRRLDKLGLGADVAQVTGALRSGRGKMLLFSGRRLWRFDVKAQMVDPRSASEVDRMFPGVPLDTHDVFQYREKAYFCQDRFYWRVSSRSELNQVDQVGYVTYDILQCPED

Row | Substance | Kobs (MMP-9; [3]) [M⁻¹ s⁻¹] | Kobs (MMP-2 [1]; [4]) [M⁻¹ s⁻¹] | relative probability (RP) (MMP-2 [2]; [5]) | Kobs (MMP-9; [6]) [M⁻¹ s⁻¹] | Kobs (MMP-2 [1]; [7]) [M⁻¹ s⁻¹] | relative probability (RP) (MMP-2 [2]; [8])
1 | HDYFN-LTASG | 0 | 27.918 | 0 | – | – | –
2 | HGLWS-LTASG | 1071.29 | 2097.28 | 8.3838 | – | – | –
3 | HIWQN-LTASG | 0 | 654.784 | 6.292 | – | – | –
4 | HLAYH-MTASG | 6396.07 | 2476.66 | 3.76 | – | – | –
5 | HNANY-LTASG | 0 | 1610.61 | 3.901 | – | – | –
6 | HQWAA-LTASG | – | – | – | 836.403 | 12792.1 | 24.4484
7 | HRHAH-LTASG | – | – | – | 0 | 7015.91 | 20.0775
8 | HRLLS-LTASG | – | – | – | 912.511 | 6688.74 | 2.018
9 | HRPRS-LTASG | – | – | – | 12792.1 | 12792.1 | 33.3704
10 | HRQQN-LTASG | 0 | 912.511 | 4.247 | – | – | –
11 | HRWSA-LTASG | – | – | – | 619.843 | 12792.1 | 25.8217
12 | HSPWF-LTASG | 9740.44 | 3165.09 | 12.628 | – | – | –
13 | HTSNW-LTASG | – | – | – | 451.441 | 3079.62 | 9.68
14 | HVWMN-LTASG | – | – | – | 619.843 | 418.952 | 0
15 | HWPVG-LTASG | 3079.62 | 2837.92 | 35.2016 | – | – | –
16 | HYPLN-STASG | – | – | – | 8321.48 | 4335.13 | 18.9358
17 | IAFSQ-LTASG | 0 | 6688.74 | 9.065 | – | – | –
18 | IDTRW-YTASG | – | – | – | 2344.36 | 3344.37 | 6.7229
19 | IEAWS-LTASG | 7015.91 | 762.325 | 7.006 | – | – | –
20 | IGALA-LTASG | – | – | – | 12792.1 | 12792.1 | 22.1184
21 | IGPQF-LTASG | – | – | – | 12792.1 | 12792.1 | 26.3159
22 | IPAFN-LTASG | 12792.1 | 10866.7 | 16.2959 | – | – | –
23 | IPLLN-LTASG | 1870.4 | 12792.1 | 8.579 | – | – | –
24 | ISVNY-LTASG | 323.705 | 3637.04 | 8.427 | – | – | –
25 | ISWLN-LTASG | 386.839 | 1112.44 | 0.1218 | – | – | –
26 | KAVNH-LTASG | – | – | – | 0 | 1763.55 | 12.8499
27 | KDYLH-LTASG | – | – | – | 0 | 0 | 0.4077

Row | Substance | Kobs (MMP-9; [3]) [M⁻¹ s⁻¹] | Kobs (MMP-2 [1]; [4]) [M⁻¹ s⁻¹] | relative probability (RP) (MMP-2 [2]; [5]) | Kobs (MMP-9; [6]) [M⁻¹ s⁻¹] | Kobs (MMP-2 [1]; [7]) [M⁻¹ s⁻¹] | relative probability (RP) (MMP-2 [2]; [8])
28 | KFWFN-LTASG | – | – | – | 0 | 0 | 0
29 | KGPEM-LTASG | 5667.28 | 3637.04 | 16.0599 | – | – | –
30 | KKWRG-LTASG | – | – | – | 6688.74 | 3079.62 | 23.375
31 | KLGRA-LTASG | – | – | – | 4763.33 | 2615.58 | 7.944
32 | KMPSF-LTASG | 8941.32 | 8321.48 | 29.537 | – | – | –
33 | KMVYM-LTASG | 3438.54 | 1561.44 | 5.094 | – | – | –
34 | KSPLG-LTASG | 10866.7 | 4470.66 | 35.3536 | – | – | –
35 | KSPSL-YTASG | – | – | – | 5090.5 | 4335.13 | 18.1013
36 | KSPVF-LTASG | – | – | – | 6688.74 | 9740.44 | 21.7568
37 | KTVVW-YTASG | – | – | – | 3850.82 | 3165.09 | 9.938
38 | KTWRN-LTASG | – | – | – | 0 | 690.17 | 6.7583
39 | KWVSM-LTASG | 1870.4 | 12792.1 | 23.0821 | – | – | –
40 | LAWAH-ITASG | – | – | – | 0 | 1030.73 | 0.05752
41 | LLFSQ-LTASG | 0 | 8941.32 | 9.065 | – | – | –
42 | LLYAS-LTASG | 990.764 | 12792.1 | 26.9916 | – | – | –
43 | LLYMG-LTASG | 799.117 | 874.197 | 0.09823 | – | – | –
44 | LNPAF-LTASG | – | – | – | 8941.32 | 12792.1 | 32.4224
45 | LPYFS-MTASG | 1660.66 | 386.839 | 0.06612 | – | – | –
46 | LQSMN-LTASG | 1239.69 | 0 | 2.165 | – | – | –
47 | LSHAW-LTASG | 56.119 | 12792.1 | 27.1428 | – | – | –
48 | LSVFW-LTASG | – | – | – | 12792.1 | 12792.1 | 13.7679
49 | LTPRY-WTASG | 5461.43 | 5269.78 | 20.9965 | – | – | –
50 | LVGNS-LTASG | 0 | 1981.53 | 0.2884 | – | – | –
51 | LVGRA-LTASG | – | – | – | 2476.66 | 6688.74 | 7.944
52 | LWYGH-LTASG | 0 | 5090.5 | 11.3746 | – | – | –
53 | MGMWH-LTASG | 142.481 | 0 | 0.2013 | – | – | –

— publication PMC7932537, “Quantitative profiling of protease specificity” (PLoS Computational Biology, 2021)
